Measured values as given in patent publication US6509464B1, “FKBP inhibitors” (Pfizer Inc, priority 1999, dated 2003).
pIC50, pKi: −log10 of the molar value.

Assays:
Format in all cases: biochemical
[1] = target: T1, human recombinant FKBP-52 (Homo sapiens, UniProt Q02790); assay: coupled PPIase (rotamase) assay, Ki,app determination vs. FKBP-52; conditions: tested vs. FKBP-12 and/or FKBP-52; FKBP-52 method; succinyl-AFPF-pNA, 10° C., pH 8.0
T1 sequence (Q02790 1-459): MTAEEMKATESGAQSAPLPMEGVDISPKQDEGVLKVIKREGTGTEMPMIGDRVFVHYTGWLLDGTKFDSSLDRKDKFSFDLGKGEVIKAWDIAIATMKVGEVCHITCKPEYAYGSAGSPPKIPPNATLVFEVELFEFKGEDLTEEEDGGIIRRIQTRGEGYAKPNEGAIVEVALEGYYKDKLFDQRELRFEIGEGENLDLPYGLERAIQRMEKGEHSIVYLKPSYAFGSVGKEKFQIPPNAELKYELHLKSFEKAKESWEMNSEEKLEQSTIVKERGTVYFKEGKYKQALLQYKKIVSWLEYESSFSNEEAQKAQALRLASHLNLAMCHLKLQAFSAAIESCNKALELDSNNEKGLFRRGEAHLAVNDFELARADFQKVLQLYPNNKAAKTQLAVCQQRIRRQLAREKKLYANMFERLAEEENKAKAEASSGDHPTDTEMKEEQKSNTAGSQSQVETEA
Protocol: (§1) Assay buffer (2.175 ml) (50 mM HEPES, 100 mM NaCl, 1 mM DTT, pH 8.0) is equilibrated to 10° C. in a cuvette. 12.5 μl of a solution of the present compound in DMSO, 250 μl of a 60 mg/ml solution of α-chymotrypsin in 1 mM aqueous hydrochloric acid and then 50 μL of a solution of human recombinant FKBP-12 (1.5 μM) in assay buffer are added and mixed. The reaction is initiated by adding 12.5 μl of a solution of anhydrous succinyl-AFPF-pNA (100 μM final concentration) in a 400 mM solution of LiCl in trifluoroethanol. The absorbance at 390 nm is monitored for 3 minutes collecting data every 0.5 second. Data are fitted with a first order rate equation with offset and the initial velocity (v) is calculated from the concentration of cis (re leu-pro bond)-succinyl-AFPF-pNA at to and the first order rate constant at different inhibitor concentrations (I). Data in the form vinh/vcontrol v. [I] are fitted with an equation for reversible tight binding inhibition to generate values for Kiapp (see Morrison, J. F., et al, Comments Mol. Cell Biophys., 1985, 2, 347-368). This analysis is used when the Ki,app approaches the concentration of FKBP-12 in the assay (30 nM).
The same methodology is used to measure Ki,app for FKBP-52, with the following modifications: 40 μl human recombinant FKBP-52 (5.2 μM) is substituted for FKBP-12 and 2.185 ml assay buffer are used in the assay.

[2] = target: T2, human recombinant FKBP-12 (Homo sapiens, UniProt P62942); assay: coupled PPIase (rotamase) assay, IC50 determination vs. FKBP-12; conditions: tested vs. FKBP-12 and/or FKBP-52; succinyl-AFPF-pNA substrate, chymotrypsin-coupled, 10° C., pH 8.0
Description: (§2) The affinity of the compounds of the formula (I) for FKBP-12 can be determined in vitro in a coupled calorimetric PPlase assay using similar procedures to published methods (e.g. see Kofron, J. L., et al., Biochemistry, 1991, 30, 6127-6134, Zarnt, T., et al., Biochem. J. 1995, 305, 159-164, Holt, D. A., et al., J. Am. Chem. Soc., 1993, 115, 9925-9938). In these methods, the cis-trans isomerisation of a hydrophobic amino acid-proline bond in a tetrapeptide substrate (e.g. the phenylalanine-proline bond in N-succinyl-ala-phe-pro-phe-p-nitroanilide [succinyl-AFPF-pNA]) can be determined by monitoring cleavage of pNA from the transPro-containing peptide by an excess of chymotrypsin.
The IC50 (the concentration of the compound of the formula (I) producing 50% inhibition) values were determined using the following assay methodology. Assay buffer (2.175 ml) (50 mM 4-(2-hydroxyethyl)-1-piperazineethanesulphonic acid (HEPES), 100 mM NaCl, 1 mM dithiothreitol (DTT), pH 8.0) is equilibrated to 10° C. in a cuvette. 12.5 μl of a solution of the present compound in DMSO, 250 μl of a 60 mg/ml solution of α-chymotrypsin in 1 mM aqueous hydrochloric acid and then 50 μl of a solution of human recombinant FKBP-12 (4.5 μM) in assay buffer are added and mixed. The reaction is initiated by addition of 12.5 μl of a solution of 20 mM succinyl-AFPF-pNA in DMSO. The absorbance at 390 nm is monitored for one minute collecting data every 0.25 second. Data are fitted with a first order rate equation with offset and the rate constant obtained corrected for the rate of uncatalysed isomerisation of the substrate. The rate constant determined at different inhibitor concentrations (10 nM to 100 μM) is expressed as % inhibition of the control rate constant. The IC50 is estimated using a nonlinear least squares curve fitting routine of the sigmoidal dose response data.

[3] = target: T2, human recombinant FKBP-12; assay: coupled PPIase (rotamase) assay, Ki,app determination vs. FKBP-12; conditions: tested vs. FKBP-12 and/or FKBP-52; FKBP-12 method; succinyl-AFPF-pNA, 10° C., pH 8.0
Description: as §2, §1

T2 sequence (P62942 whole entry): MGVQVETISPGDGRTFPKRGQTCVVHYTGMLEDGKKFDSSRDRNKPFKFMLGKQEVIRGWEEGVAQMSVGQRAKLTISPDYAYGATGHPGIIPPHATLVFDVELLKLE

Row | pKi [1] | pIC50 [2] | pKi [3] | Compound
1 | > 6.00 | > 6.00 | > 6.00 | CC1COCC(C)N1CCNC(=O)[C@@H]1CCCCN1c1nc2ccccc2o1 (stereo partly drawn) [Example 12, (2S)-1-(1,3-Benzoxazol-2-yl)-N^2-[2-(3,5-dimethylmorpholino)ethyl]-2-piperidinecarboxamide]
2 | > 6.00 | > 6.00 | > 6.00 | C[C@@H]1CCC[C@H](C)N1CCNC(=O)[C@@H]1CCCCN1c1nc2ccccc2[nH]1 [Example 17]
3 | > 6.00 | > 6.00 | > 6.00 | COc1ccc2[nH]c(N3CCCC[C@H]3C(=O)NCCN3[C@H](C)CCC[C@@H]3C)nc2c1 [Example 18]
4 | > 6.00 | > 6.00 | > 6.00 | Cc1cccc2[nH]c(N3CCCC[C@H]3C(=O)NCCN3[C@H](C)CCC[C@@H]3C)nc12 [Example 27]
5 | > 6.00 | > 6.00 | > 6.00 | Cc1cc2nc(N3CCCC[C@H]3C(=O)NCCN3[C@H](C)CCC[C@@H]3C)oc2cc1C [Example 31, (2S)-N^2-2-[(cis)-2,6-Dimethyl-1-piperidinyl]ethyl-1-[5,6-dimethyl-1,3-benzoxazol-2-yl]-2-piperidinecarboxamide]
6 | > 6.00 | > 6.00 | > 6.00 | C[C@@H]1CCC[C@H](C)N1CCNC(=O)[C@@H]1CCCCN1c1nc2ccc(F)cc2[nH]1 [Example 19]
7 | > 6.00 | > 6.00 | > 6.00 | CC(C)NC(=O)N1C[C@@H](C)N(CCNC(=O)[C@@H]2CCCCN2c2nc3ccccc3o2)[C@@H](C)C1 [Example 11, (cis)-4-[2-([(2S)-1-(1,3-Benzoxazol-2-yl)-2-piperidinyl]carbonylamino)ethyl]-N^1-isopropyl-3,5-dimethyl-1-piperazinecarboxamide]
8 | > 6.00 | > 6.00 | > 6.00 | C[C@@H]1CCC[C@H](C)N1CCNC(=O)[C@@H]1CCCCN1c1nc2ccccc2o1 [Example 3, (2S)-1-(1,3-Benzoxazol-2-yl)-N^2-2-[(cis)-2,6-dimethyl-1-piperidinyl]ethyl-2-piperidinecarboxamide]
